From ChEMBL document CHEMBL4610024, “The ceramide analogue N-(1-hydroxy-3-morpholino-1-phenylpropan-2-yl)decanamide induces large lipid droplet accumulation and highlights the effect of LAMP-2 deficiency on lipid droplet degradation” (Bioorg Med Chem Lett, 2020) come the findings set out here.

The structures appear in SMILES notation. Calls of active or inactive are those of the source. The calls are words filed in the database; no cut-off is given here.

The target of experiment [1] is T1, Lysosome-associated membrane glycoprotein 2 (Mus musculus) (UniProt P17047).
T1 sequence (whole entry): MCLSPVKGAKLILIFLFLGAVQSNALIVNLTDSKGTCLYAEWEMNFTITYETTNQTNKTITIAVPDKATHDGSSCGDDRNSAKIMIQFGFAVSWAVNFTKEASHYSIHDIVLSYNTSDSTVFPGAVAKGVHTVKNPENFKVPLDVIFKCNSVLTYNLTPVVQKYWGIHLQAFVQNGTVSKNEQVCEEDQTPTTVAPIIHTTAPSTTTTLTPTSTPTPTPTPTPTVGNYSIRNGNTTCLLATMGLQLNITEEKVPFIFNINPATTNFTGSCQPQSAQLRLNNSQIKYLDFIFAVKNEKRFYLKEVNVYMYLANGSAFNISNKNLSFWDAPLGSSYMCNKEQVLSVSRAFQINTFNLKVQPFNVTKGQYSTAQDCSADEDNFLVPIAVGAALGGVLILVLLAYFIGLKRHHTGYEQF
Nature of the experiment: Induction of LAMP2-mediated lipid droplet enlargement in mouse L cells at 40 uM measured after 17 hrs by LipiDye staining based assay. The experiment is classed as cell-based. Particulars: L929.

Experiment [2] concerns L929. Nature of the experiment: Induction of lipid droplet degradation in CRISPR/Cas9-mediated LAMP2 knocked out mouse L cells at 40 uM measured after 17 hrs by LipiDye staining based assay. The experiment is classed as functional, cell-based.
Experiment [3] deals with T1, Lysosome-associated membrane glycoprotein 2 (Mus musculus). Nature of the experiment: Induction of LAMP2-mediated autophagy in mouse L cells assessed as increase in LC3 puncta at 40 uM measured after 17 hrs by Hoechst 33342 staining based assay. It is filed as cell-based. Particulars: L929.
The test system of experiment [4] is L929. Nature of the experiment: Induction of autophagy in CRISPR/Cas9-mediated LAMP2 knocked out mouse L cells assessed as increase in […] puncta at 40 uM measured after 17 hrs by Hoechst 33342 staining based assay. It is filed as functional, cell-based.
The subject of experiment [5] is L929. Briefly: Induction of autophagy in CRISPR/Cas9-mediated LAMP2 knocked out mouse L cells assessed as formation of LC3 puncta rim around large autophagosome at 40 uM measured after 17 hrs by Hoechst 33342 staining based assay. The experiment is classed as functional, cell-based.
Experiment [6] relates to L929. Nature of the experiment: Induction of autophagy in CRISPR/Cas9-mediated LAMP2 knocked out mouse L cells assessed as formation of LC3 puncta rim in other part of cell at 40 uM measured after 17 hrs by Hoechst 33342 staining based assay. It is filed as functional.
The subject of experiment [7] is L929. Briefly: Induction of large autophagosome formation in CRISPR/Cas9-mediated LAMP2 knocked out mouse L cells assessed as degradation of multilamellar bodies at 40 uM measured after 17 hrs by transmission electron microscopy analysis. The experiment is classed as functional, cell-based.
Experiment [8] has as its system L929. Briefly: Induction of large autophagosome formation in CRISPR/Cas9-mediated LAMP2 knocked out mouse L cells assessed as accumulation of abnormal multilamellar bodies at 40 uM measured after 17 hrs by transmission electron microscopy analysis. The experiment is classed as functional, cell-based.
Experiment [9] concerns L929. Nature of the experiment: Induction of large autophagosome formation in CRISPR/Cas9-mediated LAMP2 knocked out mouse L cells assessed as decrease in multilamellar bodies layers at 40 uM measured after 17 hrs by transmission electron microscopy analysis. It is filed as functional, cell-based.
For experiment [10], the system named is L929. Briefly: Induction of large autophagosome formation in CRISPR/Cas9-mediated LAMP2 knocked out mouse L cells assessed as loosened multilamellar bodies at 40 uM measured after 17 hrs by transmission electron microscopy analysis. The experiment is classed as functional, cell-based.
In experiment [11] the target is T1, Lysosome-associated membrane glycoprotein 2 (Mus musculus). Briefly: Induction of LAMP2-mediated lipid droplet degradation in mouse L cells assessed as increase in length of long axis of lipid droplet at 40 uM measured after 17 hrs by transmission electron microscopy analysis. It is filed as cell-based. Particulars: L929.
The test system of experiment [12] is L929. Nature of the experiment: Induction of lipid droplet degradation in CRISPR/Cas9-mediated LAMP2 knocked out mouse L cells assessed as decrease in number of lipid droplet with long axis exceeding 1 um at 40 uM measured after 17 hrs by transmission electron microscopy analysis. The experiment is classed as functional, cell-based.

Regarding `CCCCCCCCCC(=O)NC(CN1CCOCC1)C(O)c1ccccc1` (configuration not stated), the result (in [1]; in experiment [3]; in the experiment with L929 [4]; in the experiment on L929 [5]; in the experiment with L929 [7]; in the experiment with L929 [8]) was Active. Further, the outcome (with L929 [9]; with L929 [10]; in experiment [11]) was Active. The result with L929 [2], in the experiment with L929 [6] and in the experiment on L929 [12] was inactive.
